Reference: patent US20230193038A1, “METHODS OF DIGITAL PRINTING USING MODIFIED INDIGO COMPOUNDS” (VP Jeanswear LP, priority 2017, published 2023)

Assay: Conversion of the modified indigo compound to indigo under hydrolyzing conditions
Assay type: physicochemical
Experimental: The hydrolysis is performed using any chemical compound or condition that is capable of converting the dye compound to indigo. In some embodiments, the hydrolysis is performed in aqueous compositions which contain a hydrolyzing agent. In other embodiments, the hydrolyzing agent may be selected by one skilled in the art and may include, without limitation, a base, heat, steam, or a combination thereof.

SMILES: O=C1/C(=C2/C(=O)c3ccccc3N2C(=O)c2ccncc2)N(C(=O)c2ccncc2)c2ccccc21 [Compound 37]
- hydrolysis to indigo: hydrolyzes to indigo
